Where no end group is shown, it is not given here.
How the values were obtained:
[1] = system: CD8+ T cells from HLA-A2+ normal donors or HLA-A2+ melanoma patients; assay: In vitro sensitization of human CD8+ T cells with TASA peptide-pulsed autologous DC, IFN-γ ELISA against peptide-pulsed T2 cells; assay type: cell-based
Experimental: The indicated peptides were pulsed onto autologous DC and used to prime and boost CD8^+ T cells isolated from the peripheral blood of eight normal HLA-A2^+ donors or ten HLA-A2^+ patients with melanoma. Seven days after the primary in vitro sensitization (IVS) (melanoma patients) or a secondary IVS boost (normal donors), T cells were analyzed for their reactivity against HLA-A2^+ T2 cells pulsed with the relevant peptide vs. the negative control HIV-nef190-198 peptide. After 24 hours of co-culture, cell-free supernatants were analyzed for levels of secreted IFN-γ using a commercial ELISA. Data are reported in Bar and Whisker plots, with p-values provided for paired pre- versus post-IVS data from normal donors and patients. In addition, p<0.05 was detected for MEL-Post versus ND-Post for the following peptides: DLK1 (309), NG2 (770), NG2 (2238), PDGFRβ (891) and RGS5 (5).
In vitro assessment of human CD8^+ T cell responses against TASA- or TAA-derived peptides. Peripheral blood mononuclear cells (PBMC) were obtained by venipuncture or leukapheresis from HLA-A2^+ normal donors or HLA-A2^+ melanoma patients with written consent under IRB-approved protocols (Table 3). CD8^+ T cells were then isolated by MACS (Miltenyi Biotec, Auburn, Calif.) and either not stimulated or stimulated with autologous, TASA peptide-pulsed DC as previously described (Tatsumi et al., Cancer Res., 63:4481-4489, 2003). Normal donor T cells were stimulated with TASA peptide-pulsed DC twice on a weekly schedule, with responder T cells harvested for analysis of their specificity 5 days after the booster stimulation (i.e. day 12 of T cell-DC co-culture). Melanoma patient CD8^+ T cells were analyzed after a single round of stimulation with TASA peptide-pulsed, autologous DC (i.e. day 5 of T cell-DC co-culture) as indicated. For DC-based stimulations, DC were pulsed with an equimolar (1 μM each) pool of the TASA peptides (Table 4) for 4 h at 37° C. at 5% CO2 tension. These antigen-loaded DC were then used to stimulate autologous CD8^+ T cells at a T cell-to-DC ratio of 10:1 to generate a bulk population of responder T cells. T cells were maintained in IMDM media supplemented with 10% human AB serum, 100 U/ml penicillin, […], 10 mM L-glutamine and MEM non-essential amino acids (all reagents from Invitrogen, except human AB serum that was purchased from Sigma-Aldrich, St. Louis, Mo.). Responder CD8^+ T cells were analyzed for reactivity against control (HLA-A2^+) T2 cells or T2 cells pulsed with individual TASA or TAA peptides (1 μM for 4 h at 37° C.) at a CD8^+ T cell-to-T2 cell ratio of 5:1 for 24 h. Harvested cell-free supernatants were consequently assessed for hIFN-γ content using a specific ELISA (BD Biosciences, San Diego, Calif.) with a lower detection limit of 4.7 pg/ml.
CD8^+ T cells from HLA-A2^+ normal donors or HLA-A2^+ melanoma patients recognize TASA-derived peptides in vitro. To assess whether the TASA-derived peptides identified in the HHD tumor model were also capable of being recognized by human CD8^+ T cells, IVS was performed using T cells isolated from the peripheral blood of HLA-A2^+ donors or HLA-A2^+ patients with melanoma. DC were pulsed with peptides derived from a given TASA for 4 h at 37° C., then washed and used as stimulator cells for autologous CD8^+ T cells. In cases where more than one peptide existed for a given protein, DC were pulsed with an equimolar (10 μM) mixture of each peptide. Two rounds of IVS using TASA for normal donors and a single-round of IVS using TASA for melanoma patients was applied. HLA-A2^+ normal donors (FIG. 4; Tables 4, 5A and 5B) and melanoma patients (FIG. 4; Tables 4, 5A and 5B) were each capable of recognizing many of the TASA-derived peptides.

[2] = system: MC38 colon carcinoma; assay: MC38 protection (prophylactic vaccination) model; assay type: in vivo, HHD mice; parameters: key to Anti-tumor efficacy in MC38 protection model: +/-, p < 0.05 versus DC only for 2 consecutive time points; - not significant at any time point analyzed; conditions: for Anti-tumor efficacy in MC38 protection model: DC.IL12 pulsed with a pool of 1 or more peptides derived from the indicated TBVA, vaccination d-14, d-7; for Protection against HLA-A2neg MC38 tumor challenge: immunization days -14 and -7, tumor challenge day 0 (FIG. 9B)
Text: FIGS. 9A-9B show a series of graphs illustrating induction of specific/protective CD8^+ T cells reactive against TASA as a consequence of DC/peptide-based vaccination. In FIG. 9A, HHD mice (five animals/cohort) were vaccinated twice (d-14, d-7) subcutaneously with PBS or with isologous DC.IL12 pulsed with PBS or synthetic peptides (Table 6) derived from the indicated TASA. In cases where more than 1 peptide was identified for a given target antigen, an equimolar pool of the indicated peptides (each 10 μM) was pulsed onto DC.IL12 and used for vaccination in the relevant cohort. One week after the second immunization, spleens were harvested and splenic CD8^+ T cells isolated using MACS-beads (Miltenyi). T cells were stimulated in vitro for 48 h using the HLA-A2^+ T2 cell line pulsed with relevant TASA vs. irrelevant HIV-nef190-198 ([…]; ref. 24) peptides. Cell-free supernatants were then recovered and IFN-γ levels by ELISA. Data are reported as mean+/−SD for triplicate ELISA determinations, and are representative of 3 independent experiments performed. *p<0.05 vs. HIV-nef control peptide responses. In FIG. 9B, HHD mice were vaccinated twice (days −14 and −7; right flank) subcutaneously with PBS or with isologous DC.IL12 pulsed with PBS or synthetic TASA peptides as indicated in FIG. 1A. In cases where more than 1 peptide is identified for a given target antigen, an equimolar pool of the indicated peptides (each 10 μM) was pulsed onto DC.IL12 and used for vaccination in the relevant cohort. One week after the booster vaccine (i.e. day zero), animals were challenged subcutaneously on their left flank with 2×10^6 MC38 colon carcinoma cells. Tumor growth was then monitored every 3-4 days through day 24. All data represent mean tumor area (in mm^2)+/−SD determined from 5 mice/cohort, and are representative of three independent experiments performed. *p<0.05 versus DC only on the indicated days.
Vaccine Experiments. For prophylactic experiments, HHD mice were immunized subcutaneously on the right flank with 100 μl PBS or PBS containing 10^6 syngenic DC.IL12 cells that had been untreated or pre-pulsed for 4 h at 37° C. with 10 μM synthetic peptide(s). Immunizations occurred on days −14 and −7, with mice subsequently receiving injections of MC38 (2×10^6) tumor cells in the left flank on d0. In all cases, treatment groups contained 5 mice per cohort. For analysis of tumor cellular composition in repeat experiments, MC38 tumors were isolated by surgical resection 10 days after tumor inoculation and prepared for fluorescence imaging, as described below. […] Mice were then untreated or treated with control, syngenic DC.IL12 or DC.IL12 (10^6 cells injected subcutaneously in the left flank on days 7 and 14) pulsed with synthetic TBVA peptides. In some assays, as indicated, in vivo antibody depletions (on days 6, 13 and 20 post-tumor inoculation to assess early involvement or on days 60 and 67 or 180 and 187 to assess late involvement) of protective CD4^+ T cells or CD8^+ T cells were performed and monitored as previously described (Zhao et al., Mol Ther., 19:805-814, 2011). In all cases, tumor size (area) was monitored every 3-4 days and is reported as mean+/−SD in mm^2.
The DLK1, EphA2, HBB, NG2, NRP1, NRP2, PDGFRβ, PSMA, RGS5, TEM1, VEGFR1 and VEGFR2 antigens were expressed in situ by blood vessel cells in the MC38 colon carcinoma TME (FIG. 14). Protection of HHD mice against a challenge with HLA-A2^neg MC38 tumor cells injected subcutaneously on day zero was assayed with immunization with TBVA-derived peptides on days −14 and −7. […]

Substance	Specific CD8+ T cell Production of IFN-γ in Response to TASA ([1]; donor Mel1, melanoma patient)	Specific CD8+ T cell Production of IFN-γ in Response to TASA ([1]; donor Mel2, melanoma patient)	Specific CD8+ T cell Production of IFN-γ in Response to TASA ([1]; donor Mel4, melanoma patient)	Specific CD8+ T cell Production of IFN-γ in Response to TASA ([1]; donor Mel5, melanoma patient)	Anti-tumor efficacy in MC38 protection model [2]	Protection against HLA-A2neg MC38 tumor challenge [2]	Specific CD8+ T cell Production of IFN-γ in Response to TASA ([1]; donor Mel6, melanoma patient)	Specific CD8+ T cell Production of IFN-γ in Response to TASA ([1]; donor Mel7, melanoma patient)	Specific CD8+ T cell Production of IFN-γ in Response to TASA ([1]; donor ND5, normal donor)	Specific CD8+ T cell Production of IFN-γ in Response to TASA ([1]; donor Mel8, melanoma patient)	Specific CD8+ T cell Production of IFN-γ in Response to TASA ([1]; donor ND2, normal donor)	Specific CD8+ T cell Production of IFN-γ in Response to TASA ([1]; donor ND4, normal donor)
NRP2: equimolar pool of the three NRP2-derived peptides (214-222, 328-336, 436-444), pulsed onto DC or DC.IL12 (chain 1 DIWDGIPHV; chain 2 YLQVDLRFL; chain 3 NMLGMLSGL; also: equimolar pool of three peptides; listed as Homo sapiens)	+ (Human responses were designated as + if T cell reactivity against T2 cells presenting the indicated peptide (IFN-γ ELISA) was >30 pg/ml and more than 2 fold higher than reactivity versus T2 cells pulsed with the negative control HIV-nef190-198 peptide)	+ (Human responses were designated as + if T cell reactivity against T2 cells presenting the indicated peptide (IFN-γ ELISA) was >30 pg/ml and more than 2 fold higher than reactivity versus T2 cells pulsed with the negative control HIV-nef190-198 peptide)	+ (Human responses were designated as + if T cell reactivity against T2 cells presenting the indicated peptide (IFN-γ ELISA) was >30 pg/ml and more than 2 fold higher than reactivity versus T2 cells pulsed with the negative control HIV-nef190-198 peptide)	+ (Human responses were designated as + if T cell reactivity against T2 cells presenting the indicated peptide (IFN-γ ELISA) was >30 pg/ml and more than 2 fold higher than reactivity versus T2 cells pulsed with the negative control HIV-nef190-198 peptide)	-	minimal protection						
VEGFR1: VEGFR1-derived peptide 770-778 pulsed onto DC or DC.IL12 (TLFWLLLTL; listed as Homo sapiens)			+ (Human responses were designated as + if T cell reactivity against T2 cells presenting the indicated peptide (IFN-γ ELISA) was >30 pg/ml and more than 2 fold higher than reactivity versus T2 cells pulsed with the negative control HIV-nef190-198 peptide)		+/- (+/-, p < 0.05 versus DC only for 2 consecutive time points)	minimal protection	+ (Human responses were designated as + if T cell reactivity against T2 cells presenting the indicated peptide (IFN-γ ELISA) was >30 pg/ml and more than 2 fold higher than reactivity versus T2 cells pulsed with the negative control HIV-nef190-198 peptide)	+ (Human responses were designated as + if T cell reactivity against T2 cells presenting the indicated peptide (IFN-γ ELISA) was >30 pg/ml and more than 2 fold higher than reactivity versus T2 cells pulsed with the negative control HIV-nef190-198 peptide)	+ (Human responses were designated as + if T cell reactivity against T2 cells presenting the indicated peptide (IFN-γ ELISA) was >30 pg/ml and more than 2 fold higher than reactivity versus T2 cells pulsed with the negative control HIV-nef190-198 peptide)			
PDGFRβ: PDGFRβ-derived peptide 890-898 pulsed onto DC or DC.IL12 (ILLWEIFTL; listed as Homo sapiens)						effective in preventing HLA-A2^neg MC38 tumor establishment or they resulted in the regression of tumors				+ (Human responses were designated as + if T cell reactivity against T2 cells presenting the indicated peptide (IFN-γ ELISA) was >30 pg/ml and more than 2 fold higher than reactivity versus T2 cells pulsed with the negative control HIV-nef190-198 peptide)	+ (Human responses were designated as + if T cell reactivity against T2 cells presenting the indicated peptide (IFN-γ ELISA) was >30 pg/ml and more than 2 fold higher than reactivity versus T2 cells pulsed with the negative control HIV-nef190-198 peptide)	+ (Human responses were designated as + if T cell reactivity against T2 cells presenting the indicated peptide (IFN-γ ELISA) was >30 pg/ml and more than 2 fold higher than reactivity versus T2 cells pulsed with the negative control HIV-nef190-198 peptide)
PSMA: PSMA-derived peptide 441-450 pulsed onto DC or DC.IL12 (LLQERGVAYI; listed as Homo sapiens)			+ (Human responses were designated as + if T cell reactivity against T2 cells presenting the indicated peptide (IFN-γ ELISA) was >30 pg/ml and more than 2 fold higher than reactivity versus T2 cells pulsed with the negative control HIV-nef190-198 peptide)		-	minimal protection	+ (Human responses were designated as + if T cell reactivity against T2 cells presenting the indicated peptide (IFN-γ ELISA) was >30 pg/ml and more than 2 fold higher than reactivity versus T2 cells pulsed with the negative control HIV-nef190-198 peptide)					
